The source of these data is PMC11012289, “The Discovery of New Inhibitors of Insulin-Regulated Aminopeptidase by a High-Throughput Screening of 400,000 Drug-like Compounds” (International Journal of Molecular Sciences, 2024).

Assay [1] has as its target T1, IRAP (Homo sapiens, UniProt Q9UIQ6).
T1 construct: The screen was performed with the soluble truncated IRAP enzyme; made in house
Nature of the assay: Primary fluorescence IRAP assay (L-Leucine-7-amido-4-methylcoumarin cleavage). It is filed as biochemical. The settings on record: for IC50: 37.5 µM L-Leucine-7-amido-4-methylcoumarin, 60 min RT, dose-response 20 µM-27.4 nM, read-out: Fluorescence IC50; for LipE: calculated from (pIC50Fluorescence − LogD). The text has this: The primary biochemical assay was developed to measure the enzymatic activity of IRAP.
To ensure biochemically sound, optimal, robust, and affordable assay conditions for large-scale screening, several factors need to be considered. […] For both primary fluorescence and orthogonal absorbance assays, non-binding 1536-well assay plates were used, and 0.05% BSA was included in the assay buffer to minimize the issues associated with protein sticking to plastics. The substrate Km values were determined in two separate experiments using two different batches of IRAP protein. For this, the IRAP progress curve was monitored every 5 min for 2 h using an Envision multimode plate reader (PerkinElmer, Waltham, MA, USA).
First, 10 nL of test compounds (4 mM) or 100% DMSO was dispensed into the 1536-well assay plates using an Echo acoustic liquid handler (Beckman Coulter, Brea, CA, USA). Then, 2 μL of protein working solution (5 × 10^−4 mg/mL) was dispensed to the negative control (min effect) and compound wells (final well concentration 2.5 × 10^−4 mg/mL) using a Certus Flex liquid dispenser (Fritz Gyger AG, Thun, Switzerland) and 2 μL assay buffer to the positive control wells (max effect) using a FLEXdrop (PerkinElmer, Waltham, MA, USA).
Figure S9. Reference compounds in Fluorescence IRAP assay with different end volumes in 1536-well format.
mg/ml) and 2 or 4 µL L -Leucine-7-amido-4-methylcoumarin (f.a.c.
Plates were measured on the Envision every 10 minutes for 140 minutes (data
shown up to 2 hours). %Effect was calculated using no protein as MAX effect (assay buffer was added instead of IRAP).

The target of assay [2] is T1, IRAP. Kind of assay: Orthogonal absorbance IRAP assay (L-Leucine para-nitroanilide cleavage). The assay is classed as biochemical. The settings on record: 1 mM L-Leucine p-Nitroanilide, 120 min RT; read-out: Absorbance pIC50 (converted). The text has this: The primary biochemical assay was developed to measure the enzymatic activity of IRAP. […] To establish an orthogonal assay, an alternative L-Leucine para-nitroanilide substrate was used, which IRAP turns over to L-Leucine and para-nitroaniline and is measurable by absorbance at 405 nm (Supplementary Figure S2B).
To ensure biochemically sound, optimal, robust, and affordable assay conditions for large-scale screening, several factors need to be considered. These include the final concentration of substrates, based on the determined substrate Km value; the assay kinetics and reaction linearity; achieving a minimal, rate limiting protein concentration; identifying optimal buffer additives and concentrations; the choice of assay plate type; the final assay volume per well; the stability of reagents; the magnitude and variance of the signal; and the potency and rank order of reference compounds. For both primary fluorescence and orthogonal absorbance assays, non-binding 1536-well assay plates were used, and 0.05% BSA was included in the assay buffer to minimize the issues associated with protein sticking to plastics. The substrate Km values were determined in two separate experiments using two different batches of IRAP protein. For this, the IRAP progress curve was monitored every 5 min for 2 h using an Envision multimode plate reader (PerkinElmer, Waltham, MA, USA). […] To evaluate if using substrate concentrations close to the determined Km values results in sufficient dynamic range within the linear range of the enzymatic reaction, Z′ and S/B were calculated for multiple time points up to 2.5 h in the presence and absence of reference compounds in both assays. The primary fluorescence assay reached an optimal Z′-value after 1 h when using 37.5 μM substrate (Supplementary Figure S5). For the absorbance, 2 h was required for the enzyme reaction time; however, using ~0.4 mM substrate was associated with increased assay variation and a poor Z′ (Supplementary Figure S6).
The orthogonal assay was performed in a black non-binding 1536-well plate (Corning 3728) and sealed with universal lids (Corning 3098). First, 20 nL of test compounds (4 mM) or 100% DMSO was dispensed into the 1536-well assay plates using an Echo acoustic liquid handler (Beckman Coulter). Then, 4 μL of protein working solution (5 × 10^−4 mg/mL) was dispensed to the negative control (min effect) and compound wells (final well concentration 2.5 × 10^−4 mg/mL) using the Certus Flex liquid dispenser (Fritz Gyger AG) and 4 μL assay buffer to the positive control wells (max effect) using the FLEXdrop (PerkinElmer). Next, 4 μL of 2 mM substrate working solution was dispensed into all wells using the FLEXdrop (final well concentration 1 mM). The assay plates were then centrifuged at 187.5× g for 30 s, incubated in the dark at RT for 120 min, and finally read on an Envision plate reader (PerkinElmer) (absorbance at 405 nm, 10 flashes per second). During the dose–response curve analysis in the orthogonal assay, 80 nL of compound (range 2.00 × 10^−3 M–2.74 × 10^−6 M) or 100% DMSO was dispensed into the assay plates using an Echo acoustic liquid handler (Beckman Coulter) with final well concentration range of 20 μM–27.4 nM compound and 1% DMSO.

Assay [3] addresses T1, IRAP. Nature of the assay: Deselection fluorescence IRAP assay with 10 µM zinc. It is filed as biochemical. The conditions noted are these: 10 µM ZnSO4 in assay buffer; read-out: Fluorescence + Zn pIC50 (converted). The procedure: To prepare the assay buffer (50 mM Tris-HCl pH 7.4, 150 mM NaCl, 0.1 mM PMSF, 0.05% BSA) of the primary and orthogonal assays, 1 M Tris-HCl was prepared by dissolving 60.57 g Trizma-base (Mw 121.14 g/mol) (Sigma 93362-250G) in 500 mL MQ water, and the pH was adjusted to 7.4 using 4 M HCl. The solution was filtered with a 0.45 μm filter and stored at room temperature (RT). Then, 2 M NaCl stock was prepared by dissolving 29.22 g NaCl (Mw 58.44 g/mol) (Sigma S7653-250G) in 250 mL MQ water. The solution was filtered with a 0.45 μm filter and stored at RT. Next, 100 mM Phenylmethanesulfonylfluoride (PMSF) stock was prepared by dissolving 1 g PMSF (Mw 174.19 g/mol) (Sigma 78830-1G) in 57.4 mL isopropanol (Sigma I9516-500ML) and stored at 4 °C. A 10% Bovine Serum Albumin (BSA) stock solution was prepared by dissolving 2 g BSA (Mw 66.5 kDa) (Sigma A7030-50G), which was dissolved in 20 mL MQ water. The solution was filtered with a 0.45 μm filter, aliquoted, and stored at −20 °C. For the deselection assay buffer (50 mM Tris-HCl pH 7.4, 150 mM NaCl, 0.1 mM PMSF, 0.05% BSA, 10 μM ZnSO4), 1 mM ZnSO4 solution was prepared by dissolving 28.8 mg ZnSO4 (Mw 287.56 g/mol) (Sigma Z0251-100G) in 100 mL MQ water. The solution was filtered with a 0.45 μm filter and stored at RT. For the TSA assay buffer (50 mM Tris HCL, 150 mM NaCl, pH 7.4), stocks of 1 M Tris HCL and 2 M NaCl were prepared as described above.

Assay [4] concerns the target T1, IRAP. Kind of assay: Thermal shift (TSA) IRAP assay. The assay is classed as binding. The settings on record: screening hits at 30 µM, 1% DMSO. The text has this:
The Thermal shift assay (TSA) is a biophysical technique measuring protein thermal stability. The assay relies on a fluorescent dye that is quenched in an aqueous environment but fluoresces when de-solvated in non-polar environments, such as the hydrophobic pockets of proteins. The target protein is mixed with the dye and heated gradually until it becomes completely denatured; as it unfolds or melts, the dye binds to newly exposed hydrophobic regions of the protein, resulting in a significant increase in fluorescence emission detected by a PCR system. The melting temperature (Tm) is calculated from the protein melt curve, and changes in Tm (known as ΔTm) are correlated with changes in protein stability and ligand binding. […] For the TSA assay, vehicle (DMSO) or compound was dispensed into MicroAmp Endura optical qPCR plates at the desired volume using an Echo acoustic liquid handler. […] The plates were then centrifuged for 10 s at 1000 rpm and sealed with Clear PCR-compatible plate seals.

Details of assay [5]: method as in ELF screening history. The settings on record: ref ELF screening history, cited from earlier work; for Enzyme Active: number of ELF enzyme screens in which the compound was active; for Targets active: number of ELF screens in which the compound was active; for Enzyme Active %: share of ELF enzyme targets screened; for Targets Active %: share of all ELF targets screened.

T1 sequence (Q9UIQ6 155-1025 limits assumed): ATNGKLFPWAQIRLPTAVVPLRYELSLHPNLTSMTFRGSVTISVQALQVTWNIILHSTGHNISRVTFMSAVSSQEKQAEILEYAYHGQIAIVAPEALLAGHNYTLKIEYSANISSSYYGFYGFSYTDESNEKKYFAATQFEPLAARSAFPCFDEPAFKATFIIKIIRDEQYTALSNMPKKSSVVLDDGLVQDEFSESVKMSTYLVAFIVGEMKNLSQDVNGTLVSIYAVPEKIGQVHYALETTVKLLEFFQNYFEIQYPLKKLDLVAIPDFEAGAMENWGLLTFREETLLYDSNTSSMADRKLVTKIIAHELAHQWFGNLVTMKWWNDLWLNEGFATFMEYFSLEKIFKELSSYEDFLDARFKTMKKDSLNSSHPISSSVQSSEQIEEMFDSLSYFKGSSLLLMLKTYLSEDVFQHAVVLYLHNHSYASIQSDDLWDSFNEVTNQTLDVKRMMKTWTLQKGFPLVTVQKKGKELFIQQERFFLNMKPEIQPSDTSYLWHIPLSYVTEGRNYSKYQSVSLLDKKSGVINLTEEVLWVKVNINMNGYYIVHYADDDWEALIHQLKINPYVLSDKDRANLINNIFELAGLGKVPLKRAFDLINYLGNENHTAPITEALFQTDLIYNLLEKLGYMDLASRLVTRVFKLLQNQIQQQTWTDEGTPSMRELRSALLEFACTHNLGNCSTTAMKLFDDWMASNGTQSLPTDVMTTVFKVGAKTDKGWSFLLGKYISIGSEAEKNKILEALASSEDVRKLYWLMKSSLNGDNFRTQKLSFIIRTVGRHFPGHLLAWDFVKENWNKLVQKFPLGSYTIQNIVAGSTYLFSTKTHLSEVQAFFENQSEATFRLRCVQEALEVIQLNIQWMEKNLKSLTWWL

For `O=c1cc(N2CCCC2)nc2n(Cc3cc(Cl)ccc3Cl)ccn12` [QHL15], at IRAP [1], the IC50 stood at 2.4 µM and the LipE is 3.54. Besides, at IRAP [2], the IC50 is over 20 µM. In addition, the IC50 on IRAP [3] was 2.57 µM. The shift in melting temperature (ΔTm) – broadly, the change in melting temperature against a reference sample – at 30 µM on IRAP [4] was -0.89 °C. Moreover, in assay [5], the “Enzyme Active” value is 6, the Targets active is 10, the “Enzyme Active %” value is recorded as 7.1% and the “Targets Active %” value is listed as 7.1%.

For the compound `CC(C)[C@@H](CS(=O)(=O)N(C)CC1CCc2ccccc2C1)C(=O)NO` (stereo partly drawn) [QHL16], on IRAP [1], the IC50 came to 2.63 µM and the LipE is reported as 3.14. Besides, the IC50 on IRAP [2] was 3.8 µM. Also, the IC50 at IRAP [3] is 2.82 µM. Besides, on IRAP [4], the ΔTm at 30 µM is 2.07 °C. Further, in assay [5], the “Enzyme Active” value was 4, the Targets active was 4, the “Enzyme Active %” value is given as 5.1% and the “Targets Active %” value is given as 2.8%.

With `Cc1cc(NC(=O)Cn2cnc3sc4c(c3c2=O)CCCC4)n(-c2ccccc2)n1` [QHL17], on IRAP [1], the IC50 worked out at 2.63 µM and the LipE is listed as 2.19. Also, the IC50 at IRAP [2] was over 20 µM. The IC50 on IRAP [3] was 3.24 µM. Further, the ΔTm at 30 µM at IRAP [4] was determined as 0.3 °C. In assay [5], the “Enzyme Active” value is reported as 4, the Targets active is given as 5, the “Enzyme Active %” value was 4.2% and the “Targets Active %” value is 3.3%.

In the case of `CC(C)c1cc(C(=O)N2CCc3n[nH]c(-c4cccs4)c3CC2)[nH]n1` [QHL19], on IRAP [1], the IC50 is 2.82 µM and the LipE is given as 1.83. In addition, the IC50 on IRAP [2] was 16.2 µM. Also, the IC50 at IRAP [3] is 2.95 µM. On IRAP [4], the ΔTm at 30 µM was 0.3 °C. For the same compound, in assay [5], the “Enzyme Active” value was 4, the Targets active is 6, the “Enzyme Active %” value is given as 9.5% and the “Targets Active %” value was 7.9%.

Turning to `CC(C)[C@@H](CS(=O)(=O)N(C)Cc1sc2ccccc2c1Cl)C(=O)NO` [QHL20], on IRAP [1], the IC50 turned out to be 2.82 µM and the LipE is 2.71. Further, the IC50 on IRAP [2] was 5.75 µM. Besides, at IRAP [3], the IC50 was 3.16 µM. Besides, the ΔTm at 30 µM at IRAP [4] amounted to 4.15 °C. In assay [5], the “Enzyme Active” value is listed as 1, the Targets active is listed as 3, the “Enzyme Active %” value is listed as 1.9% and the “Targets Active %” value is on record as 2.9%.

Turning to `O=C(Cc1cc(N2CCCCC2)nc(-c2cccc(F)c2)n1)NO` [QHL21], at IRAP [1], the IC50 turned out to be 2.95 µM and the LipE is given as 2.57. Besides, the IC50 at IRAP [2] is 5.62 µM. For the same compound, the IC50 on IRAP [3] was 2.82 µM. Also, the ΔTm at 30 µM at IRAP [4] stood at 2.66 °C. Moreover, in assay [5], the “Enzyme Active” value is reported as 6, the Targets active was 9, the “Enzyme Active %” value is given as 6.9% and the “Targets Active %” value is given as 6.3%.

Take `CC(C)CC(C(=O)NO)S(=O)(=O)N1CCN(c2ccc(F)cc2)CC1` (stereo not drawn) [QHL24]: at IRAP [1], the IC50 is 3.09 µM and the LipE was 3.57. The IC50 on IRAP [2] is 3.02 µM. In addition, at IRAP [3], the IC50 was 5.5 µM. Also, the thermal shift (ΔTm) at 30 µM at IRAP [4] turned out to be 4 °C. In assay [5], the “Enzyme Active” value is given as 2, the Targets active was 2, the “Enzyme Active %” value was 5.4% and the “Targets Active %” value is reported as 3.5%.

With `CC(C)n1cc(C(=O)N2CCc3n[nH]c(-c4cccc(F)c4)c3CC2)cn1` [QHL25], on IRAP [1], the IC50 was determined as 3.16 µM and the LipE is 2.30. Moreover, the IC50 at IRAP [2] was over 20 µM. For the same compound, the IC50 on IRAP [3] is 3.47 µM. Further, the ΔTm at 30 µM on IRAP [4] turned out to be 0 °C. Besides, in assay [5], the “Enzyme Active” value is recorded as 2, the Targets active is given as 2, the “Enzyme Active %” value was 4.8% and the “Targets Active %” value is 2.6%.

On to `O=C(C1CCCCC1)N1CCC[C@@H]1c1cc(-c2cccnc2)on1` [QHL27], for which, at IRAP [1], the IC50 was 3.24 µM and the LipE was 2.14. In addition, at IRAP [2], the IC50 is 10.7 µM. Also, at IRAP [3], the IC50 is 5.13 µM. The shift in melting temperature (ΔTm) at 30 µM on IRAP [4] amounted to 1.48 °C. Further, in assay [5], the “Enzyme Active” value is given as 4, the Targets active is 5, the “Enzyme Active %” value was 5.0% and the “Targets Active %” value is 3.4%.
